Patent publication US20050208463A1, “Method of screening drug” (priority 2001, published 2005)

What was measured:
[1] = tested on: Lrp-like protein; experiment: Gel filtration analysis of changes in assemblies of the Lrp-like protein on mixing with potential ligands; assay type: biochemical, Pyrococcus sp. OT3; details: for change in gel filtration profile of the Lrp-like protein (peak increased): protein monomer approximately 100 μM, at least 30 minutes at room temperature, UV 220 nm
Protocol: Possible changes in assemblies of the Lrp-like protein induced by interaction with amino acids and metabolic intermediates were analyzed in solution using gel filtration.
Gel filtration was carried out with the flow rate […], using a matrix (Protein Pak 125, 7.8×300 mm, Waters) and 50 mM Tris-HCl buffer (pH 7.0) containing 300 mM sodium chloride. Flow of the proteins was monitored by measuring the UV absorbance at 220 nm (LC Module I plus system, Waters). The Lrp-like protein purified by method 2, i.e., the rigorous method, were dissolved in 50 mM Tris-HCl buffer (pH 7.0) containing 200 mM sodium chloride, and kept at −80° C. until it was diluted by 10-fold with 50 mM Tris-HCl buffer (pH 7.0) containing 300 mM sodium chloride, and mixed with each potential ligand for at least 30 minutes at room temperature (about 25° C.). In the mixture, the monomer concentration of the Lrp-like protein was approximately 100 μM.

[2] = tested on: Lrp-like protein; experiment: Depolarization of crystals of the Lrp-like protein soaked in amino acid solutions; assay type: binding, Pyrococcus sp. OT3; details: crystals soaked in 10 mM amino acid; several hours
Protocol: It has been known that the regularity inside a crystal might be affected, if the structure of the protein changes upon interaction with a ligand which is incorporated from outside the crystal, thereby depolarizing the crystal. Thus, crystals of the Lrp-like protein were soaked into solutions, each containing one of twenty amino acids at the same concentration 10 mM.

Row | SMILES | change in gel filtration profile of the Lrp-like protein (peak increased) ([1]; metabolic intermediate 10 mM) | effect on assembling of the Lrp-like protein concluded from gel filtration ([1]; amino acid 1 mM) | change in gel filtration profile of the Lrp-like protein (peak increased) ([1]; amino acid 1 mM) | depolarization of crystals of the Lrp-like protein [2] | effect on assembling of the Lrp-like protein concluded from gel filtration ([1]; metabolic intermediate 10 mM)
1 | O=C(O)C(O)COP(=O)(O)O (centres unmarked) [3-phosphoglyceric acid] | no significant effect was observed |  |  |  | 
2 | C[C@H](N)C(=O)O [alanine] |  | accelerate disassembling of the protein | increasing the fourth peak |  | 
3 | N=C(N)NCCC[C@H](N)C(=O)O [arginine] |  | accelerate disassembling of the protein | increasing the fourth peak |  | 
4 | CC[C@H](C)[C@H](N)C(=O)O [isoleucine] |  | accelerates assembling of the protein | increasing the second peak | depolarized | 
5 | CC(C)C[C@H](N)C(=O)O [leucine] |  | accelerate disassembling of the protein | increasing the fourth peak | depolarized | 
6 | O=C(O)CC(O)C(=O)O (centres unmarked) [malic acid] | the third peak increased |  |  |  | intermediate effects
7 | CSCC[C@H](N)C(=O)O [methionine] |  | accelerate disassembling of the protein | increasing the fourth peak | depolarized | 
8 | O=C(O)CC(=O)C(=O)O [oxaloacetic acid] | the third peak increased |  |  |  | intermediate effects
9 | N[C@@H](Cc1ccccc1)C(=O)O [phenylalanine] |  | accelerate disassembling of the protein | increasing the fourth peak |  | 
10 | CC(=O)C(=O)O [pyruvic acid] | no significant effect was observed |  |  |  | 
11 | C[C@@H](O)[C@H](N)C(=O)O [threonine] |  | accelerate disassembling of the protein | increasing the fourth peak |  | 
12 | CC(C)[C@H](N)C(=O)O [valine] |  | intermediate effects | the third peak increased | depolarized | 
